Experimental data published in patent publication US10537571B2, “Pyrimidine FGFR4 inhibitors” (priority 2013, dated 2020).
Like-named read-outs stand apart in the source and are kept apart here.

Tested on: HEP3B tumor xenografts
Type: in vivo
Details: for comparative tumor growth efficacy: Hep3B

Compound	tolerability (health of animals) (30 mg/kg orally twice daily)	tolerability (health of animals) (60 mg/kg orally twice daily, dosing terminated on Day 11)	comparative tumor growth efficacy (60 mg/kg orally twice daily)	comparative tumor growth efficacy (25, 37.5 or 50 mg/kg i.p. twice daily)
CCN1CCN(c2ccc(Nc3cc(N(C)C(=O)Nc4c(Cl)c(OC)cc(OC)c4Cl)ncn3)cc2)CC1 [BGJ398]	did not exhibit poor health	poor health of animals	efficacy comparable to compound 108	–
C=CC(=O)Nc1cc(N2CCN(CC)CC2)ccc1Nc1cc(N(C)C(=O)Nc2c(Cl)c(OC)cc(OC)c2Cl)ncn1 [Compound 108, N-(2-(6-(3-(2,6-Dichloro-3,5-dimethoxyphenyl)-1-methylureido)pyrimidin-4-ylamino)-5-(4-ethylpiperazin-1-yl)-phenyl)acrylamide]	–	–	–	more efficacious than BGJ398
